# Data as given in patent US20090191173A1, “Induction Of Neurogenesis And Stem Cell Therapy In Combination With Copolymer 1” (priority 2004, published 2009).
# Like-named read-outs stand apart in the source and are kept apart here.
# Legend:
# [1] = tested on: neural progenitor cells (NPCs); assay: Neurogenesis from NPCs co-cultured with microglia pre-activated by aggregated Aβ and cytokines; assay type: cell-based, mouse; conditions: 10 days; Aβ 5 μM 48 h, cytokines 10 ng/ml
# Method: (xx) Reagents. Recombinant mouse IFN-γ and IL-4 (both containing endotoxin at a concentration below 0.1 ng/μg cytokine) were obtained from R&D Systems (Minneapolis, Minn.). β-amyloid peptides [amyloid protein fragment 1-40 and 1-42 (Aβ1-40/1-42)] were purchased from Sigma-Aldrich, St. Louis, Mo. The Aβ peptides were dissolved in endotoxin-free water, and Aβ aggregates were formed by incubation of Aβ, as described (Ishii et al., 2000). (xxv) Neural progenitor cell culture. Coronal sections (2 mm thick) of tissue containing the subventricular zone of the lateral ventricle were obtained from the brains of adult C57B1/6J mice. […] After centrifugation at 110×g for 15 min at room temperature, the tissue was mechanically dissociated by pipette trituration. Cells obtained from single-cell suspensions were plated (3500 cells/cm^2) in 75-cm^2 Falcon tissue-culture flasks (BD Biosciences, San Diego, Calif.), in NPC-culturing medium [Dulbecco's modified Eagles's medium (DMEM)/F12 medium (Gibco/Invitrogen, Carlsbad, Calif.) containing 2 mM L-glutamine, 0.6% glucose, 9.6 μg/ml putrescine, 6.3 ng/ml progesterone, 5.2 ng/ml sodium selenite, 0.02 mg/ml insulin, 0.1 mg/ml transferrin, 2 μg/ml heparin (all from Sigma-Aldrich, Rehovot, Israel), fibroblast growth factor-2 (human recombinant, 20 ng/ml), and epidermal growth factor (human recombinant, 20 ng/ml; both from Peprotech, Rocky Hill, N.J.)]. Spheres were passaged every 4-6 days and replated as single cells. Green fluorescent protein (GFP)-expressing NPCs were obtained as previously described (Pluchino et al., 2003). (xxvi) Primary microglial culture. Brains from neonatal (P0-P1) C57B1/6J mice were stripped of their meninges and minced with scissors under a dissecting microscope (Zeiss, Stemi DV4, Germany) in Leibovitz-15 medium (Biological Industries, Kibbutz Beit Ha-Emek, Israel). […] The cell suspension was washed in culture medium for glial cells [DMEM supplemented with 10% fetal calf serum (FCS; Sigma-Aldrich, Rehovot), L-glutamine (1 mM), sodium pyruvate (1 mM), penicillin (100 U/ml), and streptomycin ([…])] and cultured at 37° C./5% CO2 in 75-cm^2 Falcon tissue-culture flasks (BD Biosciences) coated with poly-D-lysine (PDL) (10 mg/ml; Sigma-Aldrich, Rehovot) in borate buffer (2.37 g borax and 1.55 g boric acid dissolved in 500 ml sterile water, pH 8.4) for 1 h, then rinsed thoroughly with sterile, glass-distilled water. Half of the medium was changed after 6 h in culture and every 2nd day thereafter, starting on day 2, for a total culture time of 10-14 days. […]
# [2] = tested on: spinal cord injury (SCI) in C57B1/6J mice; assay type: in vivo, mouse
# [3] = tested on: neural progenitor cells (NPCs); assay: Oligodendrocyte differentiation (NG2, RIP, GalC) of NPCs co-cultured with activated microglia; assay type: cell-based, mouse; conditions: agent added to NPCs co-cultured with MG(IFN-γ)
# Method: (iii) Neural progenitor cell (NPC) culture. Coronal sections (2 mm thick) of tissue containing the subventricular zone of the lateral ventricle were obtained from the brains of adult C57B16/J mice. The tissue was minced and then incubated for digestion at 37° C., 5% CO2 for 45 min in Earle's balanced salt solution containing 0.94 mg/ml papain (Worthington, Lakewood, N.J.) and 0.18 mg/ml of L-cysteine and EDTA. After centrifugation at 110×g for 15 min at room temperature, the tissue was mechanically dissociated by pipette trituration. Cells obtained from single-cell suspensions were plated (3500 cells/cm^2) in 75-cm^2 Falcon tissue-culture flasks (BD Biosciences, Franklin Lakes, N.J.), in NPC-culturing medium [Dulbecco's modified Eagles's medium (DMEM)/F12 medium (Gibco/Invitrogen, Carlsbad, Calif.) containing 2 mM L-glutamine, 0.6% glucose, 9.6 μg/ml putrescine, 6.3 ng/ml progesterone, 5.2 ng/ml sodium selenite, 0.02 mg/ml insulin, 0.1 mg/ml transferrin, 2 μg/ml heparin (all from Sigma-Aldrich, Rehovot, Israel), fibroblast growth factor-2 (human recombinant, 20 ng/ml), and epidermal growth factor (human recombinant, 20 ng/ml; both from Peprotech, Rocky Hill, N.J.)]. Spheres were passaged every 4-6 days and replated as single cells. Green fluorescent protein (GFP)-expressing neural progenitor cells (NPCs) were obtained as previously described (Pluchino et al., 2003). […]
molecule,measurement,setting,value
Aβ(1-40): aggregated amyloid protein fragment 1-40,neurogenesis (GFP+/βIIIT+ cells) from NPCs co-cultured with treated microglia,[1],blocked neurogenesis and decreased the number of NPCs
Aβ(1-42): aggregated amyloid protein fragment 1-42,neurogenesis (GFP+/βIIIT+ cells) from NPCs co-cultured with treated microglia,[1],negative effect was not exhibited
"MEVGWYRSPFDRVVHLYRNGK [45D peptide, altered MOG 35-55 peptide, serine to aspartic acid substitution]","Basso motor score (BMS), mean±SEM","[2]; immunization in CFA 2.5% M. tuberculosis, without aNPC transplantation (FIG. 7C)",2.57±0.24
same,"Basso motor score (BMS), mean±SEM","[2]; vaccination in CFA 2.5% M. tuberculosis 1 week before SCI, aNPCs i.c.v. 1 week after SCI (FIG. 7C)",4.11±0.27
"MEVGWYRSPFSRVVHLYRNGK [MOG/CFA, MOG peptide 35-55 emulsified in CFA containing 2.5% Mycobacterium tuberculosis]",Basso motor score (BMS),"[2]; MOG 35-55 in CFA 2.5% M. tuberculosis one week prior to SCI, no aNPCs (FIGS. 7G, 7H)",0.35±0.2
"MEVGWYRSPFSRVVHLYRNGK [MOG/CFA/PBS, pMOG 35-55 emulsified in CFA, PBS i.c.v. instead of cells]","Basso motor score (BMS), mean±SEM","[2]; immunization immediately after SCI, CFA containing 0.5% Mycobacterium tuberculosis, i.c.v. injection 1 week later (FIG. 7A)",2.71±0.5
rTNF-α: recombinant mouse TNF-α (protein) LRSSSQNSSDKPVAHVVANHQVEEQLEWLSQRANALLANGMDLKDNQLVVPADGLYLVYSQVLFKGQGCPDYVLLTHTVSRFAISYQEKVNLLSAVKSPCPKDTPEGAELKPWYEPIYLGGVFQLEKGDQLSAEVNLPKYLDFAESGQVYFGVIAL,oligodendrogenesis induced by MG(IFN-γ),[3],negative effect
"OVA/CFA/PBS: nonself protein ovalbumin emulsified in CFA, PBS i.c.v. (protein, UniProt P01012 2-386, looked up, emulsified in CFA) Ovalbumin: GSIGAASMEFCFDVFKELKVHHANENIFYCPIAIMSALAMVYLGAKDSTRTQINKVVRFDKLPGFGDSIEAQCGTSVNVHSSLRDILNQITKPNDVYSFSLASRLYAEERYPILPEYLQCVKELYRGGLEPINFQTAADQARELINSWVESQTNGIIRNVLQPSSVDSQTAMVLVNAIVFKGLWEKAFKDEDTQAMPFRVTEQESKPVQMMYQIGLFRVASMASEKMKILELPFASGTMSMLVLLPDEVSGLEQLESIINFEKLTEWTSSNVMEERKIKVYLPRMKMEEKYNLTSVLMAMGITDVFSSSANLSGISSAESLKISQAVHAAHAEINEAGREVVGSAEAGVDAASVSEEFRADHPFLFCIKHIATNAVLFFGRCVSP",Basso motor score (BMS),"[2]; OVA in CFA 2.5% M. tuberculosis, i.c.v. injection 1 week later (FIG. 7F)",2.2±0.68
